≈ marks a conversion by molar mass, not a printed value.
How the values were obtained:
D(2) dopamine receptor = D(2) dopamine receptor (Homo sapiens, UniProt P14416); experiment: Displacement of [3H]-methylspiperone from recombinant human D2 receptor stably expressed in CHO-K1 cell membranes measured after 60 mins by microbeta2 scintillation counting method; parameters: species or system Cell membrane
[1] = target: T1, 5-hydroxytryptamine receptor 1A (Homo sapiens, UniProt P08908); experiment: Displacement of [3H]8-OH-DPAT from recombinant human 5HT1A receptor stably expressed in CHO-K1 cell membranes measured after 60 mins by microbeta2 scintillation counting method; parameters: species or system Cell membrane
T1 sequence (P08908 whole entry): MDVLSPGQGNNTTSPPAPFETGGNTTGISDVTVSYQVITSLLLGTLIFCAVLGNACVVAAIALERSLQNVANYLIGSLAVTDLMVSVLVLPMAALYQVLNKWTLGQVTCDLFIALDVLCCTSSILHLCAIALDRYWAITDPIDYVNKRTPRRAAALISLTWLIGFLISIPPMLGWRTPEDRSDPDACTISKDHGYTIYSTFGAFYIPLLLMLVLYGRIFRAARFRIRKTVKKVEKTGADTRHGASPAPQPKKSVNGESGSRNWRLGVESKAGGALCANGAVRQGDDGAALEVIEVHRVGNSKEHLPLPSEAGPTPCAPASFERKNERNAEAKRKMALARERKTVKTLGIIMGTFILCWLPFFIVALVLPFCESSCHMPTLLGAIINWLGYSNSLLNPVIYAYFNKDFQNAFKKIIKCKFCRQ

[2] = target: T2, Adrenergic receptor alpha-1 (Rattus norvegicus, UniProt P15823+P23944+P43140); experiment: Displacement of [3H]-prazosin from alpha1 adrenergic receptor in rat cortex measured after 30 mins by microbeta2 scintillation counting method; assay type: tissue-based
T2 sequence (P15823 whole entry): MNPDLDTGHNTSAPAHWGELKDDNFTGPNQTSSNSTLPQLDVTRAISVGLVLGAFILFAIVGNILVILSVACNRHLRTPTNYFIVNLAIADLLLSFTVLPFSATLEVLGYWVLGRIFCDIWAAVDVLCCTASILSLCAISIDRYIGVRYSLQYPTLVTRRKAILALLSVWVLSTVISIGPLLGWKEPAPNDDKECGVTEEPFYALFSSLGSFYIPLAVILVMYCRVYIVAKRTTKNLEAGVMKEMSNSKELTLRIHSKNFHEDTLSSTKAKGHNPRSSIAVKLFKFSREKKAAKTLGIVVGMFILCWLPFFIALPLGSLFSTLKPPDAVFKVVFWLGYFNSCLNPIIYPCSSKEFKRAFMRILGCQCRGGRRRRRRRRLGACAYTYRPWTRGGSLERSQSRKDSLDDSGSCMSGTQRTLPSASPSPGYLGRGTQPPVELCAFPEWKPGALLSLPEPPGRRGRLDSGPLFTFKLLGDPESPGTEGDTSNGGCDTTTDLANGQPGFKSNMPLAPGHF
T2 sequence (P23944 whole entry): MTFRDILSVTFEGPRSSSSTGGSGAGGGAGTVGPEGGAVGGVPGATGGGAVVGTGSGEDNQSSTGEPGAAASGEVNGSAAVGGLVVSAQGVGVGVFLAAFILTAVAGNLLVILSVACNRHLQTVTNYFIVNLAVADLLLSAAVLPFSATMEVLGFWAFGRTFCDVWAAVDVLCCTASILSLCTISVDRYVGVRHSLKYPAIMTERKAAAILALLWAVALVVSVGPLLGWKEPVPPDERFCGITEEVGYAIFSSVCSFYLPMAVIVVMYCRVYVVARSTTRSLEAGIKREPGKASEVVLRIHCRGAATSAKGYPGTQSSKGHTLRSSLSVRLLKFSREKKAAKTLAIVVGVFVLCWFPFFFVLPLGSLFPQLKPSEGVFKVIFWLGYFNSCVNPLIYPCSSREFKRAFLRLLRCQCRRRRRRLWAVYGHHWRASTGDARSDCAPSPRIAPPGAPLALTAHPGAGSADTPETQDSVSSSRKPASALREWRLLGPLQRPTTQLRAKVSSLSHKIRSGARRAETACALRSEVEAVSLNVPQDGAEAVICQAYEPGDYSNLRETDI
T2 sequence (P43140 whole entry): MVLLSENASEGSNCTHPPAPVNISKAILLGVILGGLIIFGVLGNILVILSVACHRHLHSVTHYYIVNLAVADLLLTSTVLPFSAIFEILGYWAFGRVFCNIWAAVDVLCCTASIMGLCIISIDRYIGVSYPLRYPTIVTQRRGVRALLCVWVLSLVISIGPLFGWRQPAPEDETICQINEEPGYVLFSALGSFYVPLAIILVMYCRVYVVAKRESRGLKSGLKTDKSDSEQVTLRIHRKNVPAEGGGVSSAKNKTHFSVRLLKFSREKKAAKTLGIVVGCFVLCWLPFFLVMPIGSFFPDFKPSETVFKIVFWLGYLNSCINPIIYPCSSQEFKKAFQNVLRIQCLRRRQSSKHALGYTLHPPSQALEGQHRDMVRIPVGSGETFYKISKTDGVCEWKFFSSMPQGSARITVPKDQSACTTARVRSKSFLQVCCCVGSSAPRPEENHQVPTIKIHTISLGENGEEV

Rattus norvegicus [3] = experiment: Antidepressant-like activity in Wistar rat assessed as minimum effective dose causing reduction in immobility time administered intraperitoneally with compound 60 mins prior to testing and measured for 5 mins test period by Porsolt-forced swim test; assay type: functional; conditions: ip, 1.083 h, time 65 min, read-out: MED
Rattus norvegicus [4] = experiment: Antidepressant-like activity in Wistar rat assessed as reduction in immobility time at 15 mg/kg, ip administered 60 mins prior to testing and measured for 5 mins test period by Porsolt-forced swim test; assay type: functional; parameters: scale not given: the % may be the effect or the level left; conditions: time 65 min, 1.083 h
Rattus norvegicus [5] = experiment: Antidepressant-like activity in Wistar rat assessed as reduction in immobility time at 10 mg/kg, ip administered 60 mins prior to testing and measured for 5 mins test period by Porsolt-forced swim test; assay type: functional; parameters: scale not given: the % may be the effect or the level left; conditions: time 65 min, 1.083 h
[6] = target: T3, 5-hydroxytryptamine receptor 1A (Homo sapiens) (UniProt P08908); experiment: Biased agonist activity at human recombinant 5-HT1A receptor stably expressed in CHO-K1 cells assessed as increase in calcium mobilization measured at 2 sec intervals for 180 secs by Fluo-4AM dye based fluorescence assay relative to serotonin; assay type: functional, cell-based; conditions: time 180.0 sec
T3 sequence (whole entry): T1 sequence (P08908 whole entry)

[7] = target: T3, 5-hydroxytryptamine receptor 1A (Homo sapiens); experiment: Biased agonist activity at human recombinant 5-HT1A receptor stably expressed in CHO-K1 cells assessed as inhibition of forskolin-induced cAMP accumulation after 40 mins by LANCE Ultra cAMP kit-based TR-FRET assay relative to serotonin; assay type: functional, cell-based; conditions: filed as agonist
[8] = target: T3, 5-hydroxytryptamine receptor 1A (Homo sapiens); experiment: Biased agonist activity at Gal4-VP16 transcription factor linked human 5-HT1A receptor expressed in human U2OS cells assessed as stimulation of beta-arrestin recruitment measured after 5 hrs by Tango assay relative to serotonin; assay type: cell-based; conditions: filed as agonist
[9] = target: T3, 5-hydroxytryptamine receptor 1A (Homo sapiens); experiment: Biased agonist activity at human recombinant 5-HT1A receptor stably expressed in CHO-K1 cells assessed as increase in ERK1/2 phosphorylation levels incubated for 15 mins by Alphalisa assay relative to serotonin; assay type: cell-based; conditions: filed as agonist
[10] = Permeability of compound across basolateral to apical side in human Caco-2 cells at pH 7.4; assay type: ADME, cell-based; conditions: Caco-2, pH 7.4, read-out: permeability
in vitro = conditions: human, liver microsomes
[11] = target: T1, 5-hydroxytryptamine receptor 1A; experiment: Biased agonist activity at human recombinant 5-HT1A receptor stably expressed in CHO-K1 cells assessed as increase in ERK1/2 phosphorylation levels incubated for 15 mins by Alphalisa assay; assay type: cell-based
Rattus norvegicus [12] = experiment: Antidepressant-like activity in Wistar rat assessed as minimum effective dose causing reduction in immobility time after oral administration with compound 60 mins prior to testing and measured for 5 mins test period by Porsolt-forced swim test; assay type: functional; conditions: 1.083 h, time 65 min, read-out: MED
[13] = target: T1, 5-hydroxytryptamine receptor 1A; experiment: Biased agonist activity at human recombinant 5-HT1A receptor stably expressed in CHO-K1 cells assessed as increase in calcium mobilization measured at 2 sec intervals for 180 secs by Fluo-4AM dye based fluorescence assay; assay type: functional, cell-based
[14] = target: T1, 5-hydroxytryptamine receptor 1A; experiment: Biased agonist activity at human recombinant 5-HT1A receptor stably expressed in CHO-K1 cells assessed as inhibition of forskolin-induced cAMP accumulation after 40 mins by LANCE Ultra cAMP kit-based TR-FRET assay; assay type: functional, cell-based
Rattus norvegicus [15] = experiment: Antidepressant-like activity in Wistar rat assessed as maximum effective dose causing reduction in immobility time after oral administration with compound 60 mins prior to testing and measured for 5 mins test period by Porsolt-forced swim test; assay type: functional; conditions: time 65 min; 1.083 h
[16] = Aqueous solubility of compound in pH 7.4 PBS buffer at 200 uM; assay type: physicochemical

Sequence of D(2) dopamine receptor (P14416 whole entry): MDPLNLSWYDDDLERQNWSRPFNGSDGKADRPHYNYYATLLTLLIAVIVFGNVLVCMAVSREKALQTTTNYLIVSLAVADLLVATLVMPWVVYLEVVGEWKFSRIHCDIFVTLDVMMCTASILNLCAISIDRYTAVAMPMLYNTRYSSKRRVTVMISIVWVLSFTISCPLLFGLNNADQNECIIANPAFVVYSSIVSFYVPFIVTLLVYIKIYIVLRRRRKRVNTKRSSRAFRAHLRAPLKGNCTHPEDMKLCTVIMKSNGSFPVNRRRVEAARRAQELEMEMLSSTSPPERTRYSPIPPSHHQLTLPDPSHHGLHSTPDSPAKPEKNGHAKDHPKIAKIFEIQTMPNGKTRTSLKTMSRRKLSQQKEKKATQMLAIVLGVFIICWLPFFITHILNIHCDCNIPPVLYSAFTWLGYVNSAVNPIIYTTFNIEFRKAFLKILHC

Structure (SMILES) | Ki (D(2) dopamine receptor) [nM] | Ki [1] [nM] | pKi [2] | Emax [7] [%] | Emax [8] [%] | Emax [9] [%] | further results
O=C(c1ccc(Cl)c(Cl)c1)N1CCC(F)(CNCCOc2ccccc2)CC1 | > 1000 | 0.0148 |  |  |  |  | 
O=C(c1ccc(F)c(Cl)c1)N1CCC(F)(CNCCOc2cncnc2)CC1 | > 1000 | 209 | < 6 |  |  |  | 
CNC1(c2ccccc2Cl)CCCCC1=O (stereo not drawn) [KETAMINE] |  |  |  |  |  |  | minimal effective dose (Rattus norvegicus [3]): 5 mg/kg; Activity (Rattus norvegicus [4]): 43%
CN(C)CCCN1c2ccccc2CCc2ccccc21 [IMIPRAMINE] |  |  |  |  |  |  | Activity (Rattus norvegicus [5]): 25%; minimal effective dose (Rattus norvegicus [3]): 10 mg/kg
O=C(c1ccc(F)c(Cl)c1)N1CCC(F)(CNCCSc2ccccn2)CC1 |  |  |  | 76 | 102 | 84 | Emax ([6]; filed as partial agonist): 73%
CC(C)NCC(O)COc1cccc2ccccc12 (stereo not drawn) [PROPRANOLOL] |  |  |  |  |  |  | Papp B→A [10]: 27.4 ×10⁻⁶ cm/s; half-life at 0.1 µM (in vitro): > 1 h
O=C(c1ccc(F)c(Cl)c1)N1CCC(F)(CNCCNc2ccccc2)CC1 |  |  | < 6 | 79 | 104 | 81 | Emax ([6]; filed as partial agonist): 65%
Cc1cnc(CNCC2(F)CCN(C(=O)c3ccc(F)c(Cl)c3)CC2)nc1 | > 1000 | 2.19 |  |  |  |  | EC50 [11]: 4.68 nM; minimal effective dose (Rattus norvegicus [12]): 0.63 mg/kg; EC50 [13]: 245 nM; EC50 [14]: 60.3 nM; ED (Rattus norvegicus [15]): 5 mg/kg
O=C(c1ccc(F)c(Cl)c1)N1CCC(F)(CNCCOc2cccnc2)CC1 |  |  | < 6 | 100 | 101 | 99 | Emax ([6]; filed as agonist): 98%
COCCc1ccc(OCC(O)CNC(C)C)cc1 (stereo not drawn) [METOPROLOL] |  |  |  |  |  |  | solubility at 200 µM [16]: 181 µM (≈ 48.3 µg/mL)

Source: ChEMBL document CHEMBL4706479, “Novel Aryloxyethyl Derivatives of 1-(1-Benzoylpiperidin-4-yl)methanamine as the Extracellular Regulated Kinases 1/2 (ERK1/2) Phosphorylation-Preferring Serotonin 5-HT Receptor-Biased Agonists with Robust Antidepressant-like Activity” (J Med Chem, 2019)
